Laboratory results taken from ChEMBL document CHEMBL1201862, “PubChem BioAssay data set” (2004).
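1) Cells in 96-well plates. 2) Compound, 48 h, 5 concentrations. 3) Linear interpolation between surrounding doses. 4) Unreached endpoint = highest concentration. At the GI50, growth is halved.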 Calls of active or inactive are those of the source. Cut-off read from the data, not from the text of the source: active = GI50 up to about 1.1 µM and inactive = higher.

Tests used:
Experiment in all cases: inhibition of tumour cell growth, NCI panel, 48 h
[1] = system: NCI-H226
[2] = system: SNB-75
[3] = system: PC-3
[4] = system: T47D
[5] = system: TK-10
[6] = system: K562
[7] = system: EKVX
[8] = system: KM12
[9] = system: SK-MEL-28
[10] = system: BT-549
[11] = system: 786-0
[12] = system: MOLT-4
[13] = system: UACC-62
[14] = system: SR
[15] = system: HCC 2998
[16] = system: MDA-N
[17] = system: MCF7
[18] = system: LOX IMVI
[19] = system: NCI/ADR-RES
[20] = system: COLO 205
[21] = system: UACC-257
[22] = system: OVCAR-5
[23] = system: OVCAR-3
[24] = system: HCT-116
[25] = system: OVCAR-4
[26] = system: NCI-H460
[27] = system: A549
[28] = system: UO-31
[29] = system: SF-268
[30] = system: M14
[31] = system: SN12C
[32] = system: CAKI-1
[33] = system: MDA-MB-231
[34] = system: SF-295
[35] = system: DU-145
[36] = system: Hs-578T
[37] = system: HL-60
[38] = system: SK-MEL-2
[39] = system: HOP-62
[40] = system: HT-29
[41] = system: U-251
[42] = system: CCRF-CEM
[43] = system: SF-539
[44] = system: SNB-19
[45] = system: RXF 393
[46] = system: NCI-H23
[47] = system: SW-620
[48] = system: MDA-MB-435
[49] = system: ACHN
[50] = system: NCI-H522
[51] = system: IGROV-1
[52] = system: HCT-15
[53] = system: HOP-92
[54] = system: A498
[55] = system: Malme-3M
[56] = system: RPMI-8226
[57] = system: OVCAR-8
[58] = system: SK-OV-3
[59] = system: SK-MEL-5

SMILES: O=c1cc(N=P(c2ccccc2)(c2ccccc2)c2ccccc2)n(-c2ccccc2)c(=O)n1-c1ccccc1
- GI50 [1]: 3.92 µM (inactive)
- GI50 [2]: 10.1 µM (inactive)
- GI50 [3]: 3.94 µM (inactive)
- GI50 [4]: 8.85 µM (inactive)
- GI50 [5]: 15.2 µM (inactive)
- GI50 [6]: 3.31 µM (inactive)
- GI50 [7]: 10.4 µM (inactive)
- GI50 [8]: 14.9 µM (inactive)
- GI50 [9]: 23.9 µM (inactive)
- GI50 [10]: 14.5 µM (inactive)
- GI50 [11]: 6.3 µM (inactive)
- GI50 [12]: 3.48 µM (inactive)
- GI50 [13]: 11.4 µM (inactive)
- GI50 [14]: 4.28 µM (inactive)
- GI50 [15]: 8.26 µM (inactive)
- GI50 [16]: 7.64 µM (inactive)
- GI50 [17]: 6.03 µM (inactive)
- GI50 [18]: 8.77 µM (inactive)
- GI50 [19]: 21.8 µM (inactive)
- GI50 [20]: 6.56 µM (inactive)
- GI50 [21]: 23.8 µM (inactive)
- GI50 [22]: 23.2 µM (inactive)
- GI50 [23]: 8.17 µM (inactive)
- GI50 [24]: 13.3 µM (inactive)
- GI50 [25]: 4.95 µM (inactive)
- GI50 [26]: 4.15 µM (inactive)
- GI50 [27]: 6.25 µM (inactive)
- GI50 [28]: 4.92 µM (inactive)
- GI50 [29]: 29 µM (inactive)
- GI50 [30]: 8.79 µM (inactive)
- GI50 [31]: 11.1 µM (inactive)
- GI50 [32]: 12.7 µM (inactive)
- GI50 [33]: 8.18 µM (inactive)
- GI50 [34]: 20.7 µM (inactive)
- GI50 [35]: 9.51 µM (inactive)
- GI50 [36]: 18.2 µM (inactive)
- GI50 [37]: 5.06 µM (inactive)
- GI50 [38]: 13.8 µM (inactive)
- GI50 [39]: 6.52 µM (inactive)
- GI50 [40]: 15.9 µM (inactive)
- GI50 [41]: 8.02 µM (inactive)
- GI50 [42]: 8.63 µM (inactive)
- GI50 [43]: 3.76 µM (inactive)
- GI50 [44]: 17.7 µM (inactive)
- GI50 [45]: 1.53 µM (inactive)
- GI50 [46]: 5.85 µM (inactive)
- GI50 [47]: 7.45 µM (inactive)
- GI50 [48]: 5.2 µM (inactive)
- GI50 [49]: 4.33 µM (inactive)
- GI50 [50]: 14.4 µM (inactive)
- GI50 [51]: 17.9 µM (inactive)
- GI50 [52]: 3.38 µM
- GI50 [53]: 9.02 µM (inactive)
- GI50 [54]: 3.18 µM (inactive)
- GI50 [55]: 11.8 µM (inactive)
- GI50 [56]: 4.92 µM (inactive)
- GI50 [57]: 12.3 µM (inactive)
- GI50 [58]: 22.2 µM (inactive)
- GI50 [59]: 10.3 µM (inactive)

SMILES: N#Cc1c(-c2ccccc2)c(/N=N/c2ccc(F)cc2)c(=O)n2c1[nH]c1ccccc12
- GI50 [1]: 7.28 µM (inactive)
- GI50 [2]: 13.2 µM (inactive)
- GI50 [3]: 3.4 µM (inactive)
- GI50 [4]: 4.05 µM (inactive)
- GI50 [5]: 5.57 µM (inactive)
- GI50 [6]: 3.18 µM (inactive)
- GI50 [7]: 2.45 µM (inactive)
- GI50 [8]: 3.15 µM (inactive)
- GI50 [9]: 8.39 µM (inactive)
- GI50 [10]: 8.85 µM (inactive)
- GI50 [11]: 3.65 µM (inactive)
- GI50 [12]: 2.3 µM (inactive)
- GI50 [13]: 4.82 µM (inactive)
- GI50 [14]: 3.81 µM (inactive)
- GI50 [15]: 6.24 µM (inactive)
- GI50 [16]: 4.17 µM (inactive)
- GI50 [17]: 4.51 µM (inactive)
- GI50 [18]: 9.35 µM (inactive)
- GI50 [19]: 3 µM (inactive)
- GI50 [20]: 3.43 µM (inactive)
- GI50 [21]: 3.21 µM (inactive)
- GI50 [22]: 5.94 µM (inactive)
- GI50 [23]: 2.14 µM (inactive)
- GI50 [24]: 2.03 µM (inactive)
- GI50 [25]: 4.09 µM (inactive)
- GI50 [26]: 2.31 µM (inactive)
- GI50 [27]: 3.08 µM (inactive)
- GI50 [28]: 2.97 µM (inactive)
- GI50 [29]: 6.43 µM (inactive)
- GI50 [30]: 3.54 µM (inactive)
- GI50 [31]: 1.84 µM (inactive)
- GI50 [32]: 3.92 µM (inactive)
- GI50 [33]: 5.21 µM (inactive)
- GI50 [34]: 5.25 µM (inactive)
- GI50 [35]: 4.48 µM (inactive)
- GI50 [36]: 4.43 µM (inactive)
- GI50 [37]: 1.46 µM (inactive)
- GI50 [38]: 18.2 µM (inactive)
- GI50 [39]: 6.15 µM (inactive)
- GI50 [40]: 2.92 µM (inactive)
- GI50 [41]: 3.66 µM (inactive)
- GI50 [42]: 1.26 µM (inactive)
- GI50 [43]: 10.9 µM (inactive)
- GI50 [44]: 5.05 µM (inactive)
- GI50 [45]: 10.4 µM (inactive)
- GI50 [46]: 5.28 µM (inactive)
- GI50 [47]: 4.28 µM (inactive)
- GI50 [48]: 4.7 µM (inactive)
- GI50 [49]: 5.64 µM (inactive)
- GI50 [50]: 2.18 µM (inactive)
- GI50 [51]: 2.69 µM (inactive)
- GI50 [52]: 3.33 µM
- GI50 [53]: 2.18 µM (inactive)
- GI50 [54]: 8.02 µM (inactive)
- GI50 [55]: 7.6 µM (inactive)
- GI50 [56]: 0.708 µM (active)
- GI50 [57]: 2.34 µM (inactive)
- GI50 [58]: 4.86 µM (inactive)
- GI50 [59]: 1.53 µM (inactive)

SMILES: Nc1ncnc2c1ncn2[C@@H]1O[C@H](COP(=O)(O)OP(=O)(O)OC[C@H]2O[C@@H](OCCCO)[C@H](O)[C@@H]2O)[C@@H](O)[C@H]1O
- GI50 [1]: > 100 µM (inactive)
- GI50 [2]: > 100 µM (inactive)
- GI50 [3]: > 100 µM (inactive)
- GI50 [4]: > 100 µM (inactive)
- GI50 [5]: > 100 µM (inactive)
- GI50 [6]: > 100 µM (inactive)
- GI50 [7]: > 100 µM (inactive)
- GI50 [8]: 63.5 µM (inactive)
- GI50 [9]: > 100 µM (inactive)
- GI50 [10]: > 100 µM (inactive)
- GI50 [11]: > 100 µM (inactive)
- GI50 [12]: > 100 µM (inactive)
- GI50 [13]: > 100 µM (inactive)
- GI50 [14]: 44.8 µM (inactive)
- GI50 [15]: > 100 µM (inactive)
- GI50 [16]: 78.9 µM (inactive)
- GI50 [17]: > 100 µM (inactive)
- GI50 [18]: 56.8 µM (inactive)
- GI50 [19]: > 100 µM (inactive)
- GI50 [20]: > 100 µM (inactive)
- GI50 [21]: > 100 µM (inactive)
- GI50 [22]: > 100 µM (inactive)
- GI50 [23]: > 100 µM (inactive)
- GI50 [24]: 61.1 µM (inactive)
- GI50 [25]: > 100 µM (inactive)
- GI50 [26]: 34.6 µM (inactive)
- GI50 [27]: 87.7 µM (inactive)
- GI50 [28]: > 100 µM (inactive)
- GI50 [29]: > 100 µM (inactive)
- GI50 [30]: > 100 µM (inactive)
- GI50 [31]: > 100 µM (inactive)
- GI50 [32]: 85.9 µM (inactive)
- GI50 [33]: > 100 µM (inactive)
- GI50 [34]: > 100 µM (inactive)
- GI50 [35]: > 100 µM (inactive)
- GI50 [36]: > 100 µM (inactive)
- GI50 [37]: > 100 µM (inactive)
- GI50 [38]: > 100 µM (inactive)
- GI50 [39]: > 100 µM (inactive)
- GI50 [40]: 69.8 µM (inactive)
- GI50 [41]: > 100 µM (inactive)
- GI50 [42]: > 100 µM (inactive)
- GI50 [43]: > 100 µM (inactive)
- GI50 [44]: 76.6 µM (inactive)
- GI50 [45]: > 100 µM (inactive)
- GI50 [46]: > 100 µM (inactive)
- GI50 [47]: > 100 µM (inactive)
- GI50 [48]: > 100 µM (inactive)
- GI50 [49]: > 100 µM (inactive)
- GI50 [50]: > 100 µM (inactive)
- GI50 [51]: > 100 µM (inactive)
- GI50 [52]: 60 µM
- GI50 [53]: > 100 µM (inactive)
- GI50 [54]: > 100 µM (inactive)
- GI50 [55]: > 100 µM (inactive)
- GI50 [56]: > 100 µM (inactive)
- GI50 [57]: > 100 µM (inactive)
- GI50 [58]: > 100 µM (inactive)
- GI50 [59]: > 100 µM (inactive)
